Where two headings read alike, the source gives them in different places.
Biological target: CRBN/DDB1 protein (Homo sapiens, UniProt Q96SW2)
Assay: Detection of inhibition of CRBN/DDB1 activity by compounds (FRET)
Type: binding
Experimental: Test Example 1 Detection of Inhibition of CRBN/DDB1 Activity by Compounds (FRET)
Microplate reader (BMG PHERAstar FSX), ECHO (LABCYTE Echo 665), microplate thermostatic oscillator (Hangzhou Ruicheng Instrument Co., Ltd.), disodium hydrogen phosphate (Sigma), sodium dihydrogen phosphate (Sigma), bovine serum albumin (Sigma), Anti-6His-Tb crypate Gold (CISBIO), CRBN/DDB1 protein (HitGen) and 384-well plate (Grenier Bio-one).
The dry powder of the compound was dissolved in DMSO, and the compound was serially diluted using ECHO, and added to a 384-well reaction plate, so that the final concentration of DMSO in the whole reaction system (10.0 μL) was 1.0%, and the same amount of DMSO was added as a control.
20 mM disodium hydrogen phosphate, 20 mM sodium dihydrogen phosphate, 0.08% bovine serum albumin and buffer with pH of 7.0 were used to dilute the CRBN/DDB1 protein to twice the required final concentration (5.0 nM), and 5.0 μL of the diluted CRBN/DDB1 protein was added into the 384-well reaction plate added with compounds, centrifuged at 1000 rpm for 1 min, then placed on a microplate thermostatic oscillator, and pre-incubated at 25° C. and 250 rpm for 15 min. 20 mM disodium hydrogen phosphate, 20 mM sodium dihydrogen phosphate, 0.08% bovine serum albumin and buffer with a pH of 7.0 were used to dilute Anti-6His-Tb crypate Gold and FITC-labeled thalidomide analogues to twice the required final concentration, and the final concentration of Anti-6His-Tb crypate Gold was 0.2 nM, the final concentration of FITC-labeled thalidomide analogues was 50.0 nM, and a mixed solution of Anti-6His-Tb crypate Gold/FITC-labeled thalidomide analogues was obtained. […] After the reaction was completed, the fluorescence signal value (Ex-337 nm Em=520/490 nm) in the 384-well reaction plate was read by the microplate reader. […]
The percentage of residual activity of each concentration was calculated as follows: […]
Then, the dose-effect curve was fitted using GraphPad Prism 6.0 and the IC50 value was calculated accordingly.

Sequence of CRBN/DDB1 protein (Q96SW2 whole entry, species assumed): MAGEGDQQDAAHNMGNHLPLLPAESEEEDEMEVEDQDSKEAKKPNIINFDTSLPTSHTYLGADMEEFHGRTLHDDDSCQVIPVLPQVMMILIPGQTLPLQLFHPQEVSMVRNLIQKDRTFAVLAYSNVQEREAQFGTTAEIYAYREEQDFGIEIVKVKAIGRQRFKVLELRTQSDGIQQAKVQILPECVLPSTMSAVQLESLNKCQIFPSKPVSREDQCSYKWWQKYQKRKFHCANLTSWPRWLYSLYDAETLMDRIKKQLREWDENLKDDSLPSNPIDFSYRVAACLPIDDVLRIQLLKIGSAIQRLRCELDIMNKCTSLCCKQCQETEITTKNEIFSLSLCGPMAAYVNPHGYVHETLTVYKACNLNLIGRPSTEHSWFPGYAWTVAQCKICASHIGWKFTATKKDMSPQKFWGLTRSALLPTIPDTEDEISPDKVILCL
Sequence of CRBN/DDB1 protein (Q16531 whole entry partner, species assumed): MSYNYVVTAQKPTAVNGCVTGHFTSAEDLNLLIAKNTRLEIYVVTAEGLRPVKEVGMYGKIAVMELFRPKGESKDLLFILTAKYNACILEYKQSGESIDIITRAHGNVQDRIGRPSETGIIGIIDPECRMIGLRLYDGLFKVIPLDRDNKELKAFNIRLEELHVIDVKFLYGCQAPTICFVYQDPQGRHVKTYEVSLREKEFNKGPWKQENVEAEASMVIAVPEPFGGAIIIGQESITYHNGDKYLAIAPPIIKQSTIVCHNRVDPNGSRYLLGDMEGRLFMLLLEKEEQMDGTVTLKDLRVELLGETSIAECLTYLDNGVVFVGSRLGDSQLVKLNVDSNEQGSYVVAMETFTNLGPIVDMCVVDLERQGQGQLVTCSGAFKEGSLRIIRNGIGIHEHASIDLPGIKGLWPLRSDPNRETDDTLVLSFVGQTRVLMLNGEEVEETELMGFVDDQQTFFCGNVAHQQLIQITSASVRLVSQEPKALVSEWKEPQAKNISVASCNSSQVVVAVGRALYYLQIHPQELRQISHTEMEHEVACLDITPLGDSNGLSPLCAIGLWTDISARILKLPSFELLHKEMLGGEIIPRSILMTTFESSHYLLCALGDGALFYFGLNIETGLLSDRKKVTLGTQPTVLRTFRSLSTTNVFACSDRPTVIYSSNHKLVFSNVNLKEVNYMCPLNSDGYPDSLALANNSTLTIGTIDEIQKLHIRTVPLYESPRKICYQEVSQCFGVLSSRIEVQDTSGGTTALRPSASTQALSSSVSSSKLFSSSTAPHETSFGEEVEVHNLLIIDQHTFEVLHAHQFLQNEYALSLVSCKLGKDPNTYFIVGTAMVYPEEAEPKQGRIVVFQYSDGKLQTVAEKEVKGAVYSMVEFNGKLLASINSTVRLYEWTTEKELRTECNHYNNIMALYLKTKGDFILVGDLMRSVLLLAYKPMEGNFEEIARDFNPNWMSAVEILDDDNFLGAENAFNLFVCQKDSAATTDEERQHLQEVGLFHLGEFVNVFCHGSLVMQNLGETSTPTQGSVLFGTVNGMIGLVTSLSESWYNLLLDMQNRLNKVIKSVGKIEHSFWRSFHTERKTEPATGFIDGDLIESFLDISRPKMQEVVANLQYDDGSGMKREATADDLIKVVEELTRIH

SMILES | IC50 | IC50 (FRET, 5.0 nM CRBN/DDB1, 0.2 nM Anti-6His-Tb, 50.0 nM FITC-labeled thalidomide analogue, 1.0% DMSO, 25° C., read-out: IC50, inhibition of CRBN/DDB1 protein)
O=C1CC2(CN(C(=O)c3c4n(c5ccccc35)C=NC4=O)C2)C(=O)N1 [Compound B3] | 43 nM | –
CN1Cn2c(c(C(=O)N3CC4(CC(=O)NC4=O)C3)c3ccccc32)C1=O [Compound B5] | – | 11 nM
O=C1CC2(CN(C(=O)c3c4n(c5ccccc35)CNC4=O)C2)C(=O)N1 [Compound B4] | 18 nM | –

— US20260234166A1, “FUSED RING COMPOUND AND USE THEREOF” (HITGEN INC., priority 2023, published 2026)
